Results as given in patent publication US10098883B2, “(Aza)pyridopyrazolopyrimidinones and indazolopyrimidinones and their use” (BAYER PHARMA AKTIENGESELLSCHAFT, priority 2013, dated 2018).
Counter-ions that a name gives are not always drawn.

System: clot lysis (fibrinolysis) in human citrated plasma, tPA-induced
Test: Plasma-based clot lysis assay (5%)
Assay type: biochemical
Conditions: diluted human citrated plasma (platelet-poor, 5%), fibrinogen 3 μM, CaCl2 10 mM, tPA 0.2 nM, 37° C., OD 405 nm
Protocol: B-2. Plasma-based Clot Lysis Assay (5%)
The clot-lysis test system configures the kinetics of clot formation and degradation in vitro and allows quantifying modulation of the process by selected test compounds.
The test compounds were dissolved in 1% acetic acid and further complemented with an equal volume of DMSO. The resulting stock solutions were serially diluted in 0.5% acetic acid/50% DMSO. 1 μL aliquots of these solutions were placed into 384 well microplates (Greiner, black, transparent bottom), followed by 30 μL of diluted human citrated plasma (platelet-poor, final concentration: 5%; supplemented with fibrinogen, final concentration: 3 μM; dilution buffer: 20 mM HEPES, 150 mM NaCl, 0.01% Brij (pH 7)). The reactions were started by addition of […] of CaCl2 (final concentration: 10 mM), and tPA (tissue plasminogen activator, final concentration: 0.2 nM) in dilution buffer, followed by an additional volume of 20 μL dilution buffer for improved mixing. The reactions were incubated at 37° C. Clot formation and degradation was monitored spectrophotometrically by kinetic optical density measurements at 405 nm. IC50 values were determined by comparing the resulting time courses with the time course of a blank control reaction.

| SMILES | IC50 |
| --- | --- |
| Cc1cc(C(F)(F)F)nc2nn3c(C4CCNCC4)cc(=O)[nH]c3c12 [Example 14, 10-Methyl-4-(piperidin-4-yl)-8-(trifluoromethyl)pyrido[2′,3′:3,4]pyrazolo[1,5-a]pyrimidin-2(1H)-one hydrochloride] | 50 nM |
| CN(C)c1ccnc2nn3c(C4CCNCC4)cc(=O)[nH]c3c12 [Example 40, 10-(Dimethylamino)-4-(piperidin-4-yl)pyrido[2′,3′:3,4]pyrazolo[1,5-a]pyrimidin-2(1H)-one hydrochloride] | 38 nM |
| COc1ccc(-c2cccc3nn4c(C5CCNCC5)cc(=O)[nH]c4c23)cc1 [Example 54, 10-(4-Methoxyphenyl)-4-(piperidin-4-yl)pyrimido[1,2-b]indazol-2(1H)-one hydrochloride] | 15 nM |
| Cc1ccc2nn3c(C4CCNCC4)cc(=O)[nH]c3c2c1Cl [Example 69, 10-Chloro-9-methyl-4-(piperidin-4-yl)pyrimido[1,2-b]indazol-2(1H)-one hydrochloride] | 20 nM |
| O=c1cc(C2CCNCC2)n2nc3cccc(OCC(F)(F)F)c3c2[nH]1 [Example 107, 4-(piperidin-4-yl)-10-(2,2,2-trifluoroethoxy)pyrimido[1,2-b]indazol-2(1H)-one hydrochloride] | 34 nM |
| O=c1cc(C2CCNCC2)n2nc3cccc(-c4ccccc4Cl)c3c2[nH]1 [Example 64, 10-(2-Chlorophenyl)-4-(piperidin-4-yl)pyrimido[1,2-b]indazol-2(1H)-one hydrochloride] | 19 nM |
| O=C(O)c1cccc2nn3c(C4CCNCC4)cc(=O)[nH]c3c12 [Example 106, 2-oxo-4-(piperidin-4-yl)-1,2-dihydropyrimido[1,2-b]indazole-10-carboxylic acid hydrochloride] | 420 nM |
| O=c1cc(C2CCNCC2)n2nc3cccc(I)c3c2[nH]1 [Example 20, 10-Iodo-4-(piperidin-4-yl)pyrimido[1,2-b]indazol-2(1H)-one hydrochloride] | 22 nM |
| O=c1cc(C2CCNCC2)n2nc3ncc(-c4ccccc4)cc3c2[nH]1 [Example 45, 9-Phenyl-4-(piperidin-4-yl)pyrido[2′,3′:3,4]pyrazolo[1,5-a]pyrimidin-2(1H)-one hydrochloride] | 37 nM |
| O=c1cc(C2CCNCC2)n2nc3nccnc3c2[nH]1 [Example 38, 7-(Piperidin-4-yl)pyrazino[2′,3′:3,4]pyrazolo[1,5-a]pyrimidin-9(10H)-one hydrochloride] | 60 nM |
| O=c1cc(C2CCNCC2)n2nc3cccc(-c4cccnc4)c3c2[nH]1 [Example 58, 4-(Piperidin-4-yl)-10-(pyridin-3-yl)pyrimido[1,2-b]indazol-2(1H)-one hydrochloride] | 15 nM |
| O=c1cc(C2CCNCC2)n2nc3cc(C(F)(F)F)ccc3c2[nH]1 [Example 11, 4-(Piperidin-4-yl)-8-(trifluoromethyl)pyrimido[1,2-b]indazol-2(1H)-one hydrochloride] | 26 nM |
| O=c1cc(C2CCNCC2)n2nc3cccc(-c4ccncc4)c3c2[nH]1 [Example 59, 4-(Piperidin-4-yl)-10-(pyridin-4-yl)pyrimido[1,2-b]indazol-2(1H)-one hydrochloride] | 16 nM |
| O=c1cc(C2CCNCC2)n2nc3cccc(-c4ccccc4OC(F)(F)F)c3c2[nH]1 [Example 80, 4-(Piperidin-4-yl)-10-[2-(trifluoromethoxy)phenyl]pyrimido[1,2-b]indazol-2(1H)-on hydrochloride] | 18 nM |
| CC(C)Oc1ccccc1-c1cccc2nn3c(C4CCNCC4)cc(=O)[nH]c3c12 [Example 94, 10-(2-Isopropoxyphenyl)-4-(piperidin-4-yl)pyrimido[1,2-b]indazol-2(1H)-one hydrochloride] | 35 nM |
| Cc1ccc(Br)c2c1nn1c(C3CCNCC3)cc(=O)[nH]c21 [Example 75, 10-Bromo-7-methyl-4-(piperidin-4-yl)pyrimido[1,2-b]indazol-2(1H)-one hydrochloride] | 16 nM |
| O=c1cc(C2CCNCC2)n2nc3cccc(-c4ccsc4)c3c2[nH]1 [Example 84, 4-(Piperidin-4-yl)-10-(3-thienyl)pyrimido[1,2-b]indazol-2(1H)-one hydrochloride] | 23 nM |
| O=c1cc(C2CCNCC2)n2nc3cccc(Cl)c3c2[nH]1 [Example 66, 10-Chloro-4-(piperidin-4-yl)pyrimido[1,2-b]indazol-2(1H)-one] | 15 nM |
| Cc1ccc2c(n1)nn1c(C3CCNCC3)cc(=O)[nH]c21 [Example 24, 8-Methyl-4-(piperidin-4-yl)pyrido[2′,3′:3,4]pyrazolo[1,5-a]pyrimidin-2(1H)-one hydrochloride] | 34 nM |

| SMILES | IC50 |
| --- | --- |
| O=c1cc(C2CCNCC2)n2nc3ccc(C(F)(F)F)cc3c2[nH]1 [Example 2, 4-(Piperidin-4-yl)-9-(trifluoromethyl)pyrimido[1,2-b]indazol-2(1H)-one hydrochloride] | 30 nM |
| O=c1cc(C2CCNCC2)n2nc3cc(F)cc(Br)c3c2[nH]1 [Example 81, 10-Bromo-8-fluoro-4-(piperidin-4-yl)pyrimido[1,2-b]indazol-2(1H)-one hydrochloride] | 16 nM |
| Cn1nccc1-c1cccc2nn3c(C4CCNCC4)cc(=O)[nH]c3c12 [Example 86, 10-(1-Methyl-1H-pyrazol-5-yl)-4-(piperidin-4-yl)pyrimido[1,2-b]indazol-2(1H)-one hydrochloride] | 15 nM |
| O=c1cc(C2CCNCC2)n2nc3cncc(Br)c3c2[nH]1 [Example 43, 10-Bromo-4-(piperidin-4-yl)pyrido[3′,4′:3,4]pyrazolo[1,5-a]pyrimidin-2(1H)-one hydrochloride] | 100 nM |
| O=c1cc(C2CCNCC2)n2nc3c(F)ccc(Br)c3c2[nH]1 [Example 71, 10-Bromo-7-fluoro-4-(piperidin-4-yl)pyrimido[1,2-b]indazol-2(1H)-one hydrochloride] | 15 nM |
| O=c1cc(C2CCNCC2)n2nc3cccc(-c4c(F)cccc4F)c3c2[nH]1 [Example 78, 10-(2,6-Difluorophenyl)-4-(piperidin-4-yl)pyrimido[1,2-b]indazol-2(1H)-one hydrochloride] | 15 nM |
| CC(C)(C)c1ccc2c(n1)nn1c(C3CCNCC3)cc(=O)[nH]c21 [Example 13, 8-tert-Butyl-4-(piperidin-4-yl)pyrido[2′,3′:3,4]pyrazolo[1,5-a]pyrimidin-2(1H)-one hydrochloride] | 31 nM |
| O=c1cc(C2CCNCC2)n2nc3cccc(-n4nccn4)c3c2[nH]1 [Example 98, 4-(Piperidin-4-yl)-10-(2H-1,2,3-triazol-2-yl)pyrimido[1,2-b]indazol-2(1H)-one hydrochloride] | 27 nM |
| O=c1cc(C2CCNCC2)n2nc3cc(Br)ccc3c2[nH]1 [Example 21, 8-Bromo-4-(piperidin-4-yl)pyrimido[1,2-b]indazol-2(1H)-one hydrochloride] | 30 nM |
| O=c1cc(C2CCNCC2)n2nc3c(Cl)cccc3c2[nH]1 [Example 22, 7-Chloro-4-(piperidin-4-yl)pyrimido[1,2-b]indazol-2(1H)-one hydrochloride] | 26 nM |
| O=c1cc(C2CCNCC2)n2nc3cc(F)ccc3c2[nH]1 [Example 18, 8-Fluoro-4-(piperidin-4-yl)pyrimido[1,2-b]indazol-2(1H)-one hydrochloride] | 38 nM |
| O=c1cc(C2CCNCC2)n2nc3ccc(F)c(Br)c3c2[nH]1 [Example 70, 10-Bromo-9-fluoro-4-(piperidin-4-yl)pyrimido[1,2-b]indazol-2(1H)-one hydrochloride] | 35 nM |
| COc1ccccc1-c1cccc2nn3c(C4CCNCC4)cc(=O)[nH]c3c12 [Example 65, 10-(2-Methoxyphenyl)-4-(piperidin-4-yl)pyrimido[1,2-b]indazol-2(1H)-one hydrochloride] | 25 nM |
| Cc1ccnc2nn3c(C4CCNCC4)cc(=O)[nH]c3c12 [Example 47, 10-methyl-4-(piperidin-4-yl)pyrido[2′,3′:3,4]pyrazolo[1,5-a]pyrimidin-2(1H)-one hydrochloride] | 24 nM |
| O=c1cc(C2CCNCC2)n2nc3cccnc3c2[nH]1 [Example 9, 7-(Piperidin-4-yl)pyrido[3′,2′:3,4]pyrazolo[1,5-a]pyrimidin-9(10H)-one hydrochloride] | 36 nM |
| O=c1cc(C2CCNCC2)n2nc3cccc(-c4nccs4)c3c2[nH]1 [Example 83, 4-(Piperidin-4-yl)-10-(1,3-thiazol-2-yl)pyrimido[1,2-b]indazol-2(1H)-one hydrochloride] | 41 nM |
| O=c1cc(C2CCNCC2)n2nc3c(Br)cncc3c2[nH]1 [Example 27, 7-Bromo-4-(piperidin-4-yl)pyrido[4′,3′:3,4]pyrazolo[1,5-a]pyrimidin-2(1H)-one hydrochloride] | 13 nM |
| O=c1cc(C2CCNCC2)n2nc3cccc(-c4ccccc4)c3c2[nH]1 [Example 56, 10-Phenyl-4-(piperidin-4-yl)pyrimido[1,2-b]indazol-2(1H)-one hydrochloride] | 14 nM |

Same assay, conditions: diluted human citrated plasma (platelet-poor, 5%), fibrinogen 3 μM, CaCl2 10 mM, tPA 0.2 nM, 37° C., OD 405 nm; hydrochloride

| SMILES | IC50 |
| --- | --- |
| O=c1cc(C2CCNCC2)n2nc3cccc(-c4ccccc4F)c3c2[nH]1 [Example 57, 10-(2-Fluorophenyl)-4-(piperidin-4-yl)pyrimido[1,2-b]indazol-2(1H)-one hydrochloride] | 13 nM |
